We go through 18 molecules from PubChem BioAssay AID248 (DTP/NCI, 2004).

Where “and” joins values, the source holds several entries; their conditions need not be identical. Equal entries are not always repeated. Inconclusive results and toxic doses are left out.

This assay has as its system L1210 leukemia ip in BDF1 mice, survival T/C. The experiment in a line: NCI In Vivo Anticancer Drug Screen. Data for tumor model L1210 Leukemia (intraperitoneal) in B6D2F1 (BDF1) mice. Particulars: endpoint: mean survival time, higher = longer survival. The essentials:
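In this screen, tumor-bearing mice given compound are compared to those given vehicle, and their survival values are reported as a treated-to-control quotient.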

[1] abbreviates: dose: 100.0 mg/kg/injection, schedule: Q01DX009 (ip), vehicle: Klucel (hydroxypropylcellulose) (HPC).
The mark [2] stands for this setting: dose: 200.0 mg/kg/injection, schedule: Q01DX009 (ip), vehicle: Klucel (hydroxypropylcellulose) (HPC).
Setting [3] is: dose: 400.0 mg/kg/injection, schedule: Q01DX009 (ip), vehicle: Klucel (hydroxypropylcellulose) (HPC).
The mark [4] stands for this setting: dose: 100.0 mg/kg/injection, schedule: Q01DX001 (ip), vehicle: saline.
Setting [5] is: dose: 200.0 mg/kg/injection, schedule: Q01DX001 (ip), vehicle: saline.
Setting [6] is: dose: 400.0 mg/kg/injection, schedule: Q01DX001 (ip), vehicle: saline.
The mark [7] stands for this setting: dose: 100.0 mg/kg/injection, schedule: Q04DX003 (ip), vehicle: saline.
The mark [8] stands for this setting: dose: 50.0 mg/kg/injection, schedule: Q01DX001 (ip), vehicle: carboxymethylcellulose (CMC).
Setting [9] is: dose: 100.0 mg/kg/injection, schedule: Q01DX001 (ip), vehicle: carboxymethylcellulose (CMC).
The mark [10] stands for this setting: dose: 200.0 mg/kg/injection, schedule: Q01DX001 (ip), vehicle: carboxymethylcellulose (CMC).
The mark [11] stands for this setting: dose: 400.0 mg/kg/injection, schedule: Q01DX001 (ip), vehicle: carboxymethylcellulose (CMC).

For the molecule `CC[N+](C)(CC)CCCN1C(=O)c2ccccc2S1(=O)=O`, the T/C is 94 % of control (dose: 22.0 mg/kg/injection, schedule: Q01DX Z (ip), vehicle: methylcellulose (MC)); 96 % of control (dose: 33.0 mg/kg/injection, schedule: Q01DX Z (ip), vehicle: methylcellulose (MC)); 91 % of control (dose: 50.0 mg/kg/injection, schedule: Q01DX Z (ip), vehicle: methylcellulose (MC)).

On to `O=NN(c1ccccc1)c1ccccc1`, for which the T/C is, setting by setting: (dose: 100.0 mg/kg/injection, schedule: Q01DX001 (ip), vehicle: Klucel (hydroxypropylcellulose) (HPC)) 98 % of control; under setting [1], 100 % of control; (dose: 200.0 mg/kg/injection, schedule: Q01DX001 (ip), vehicle: Klucel (hydroxypropylcellulose) (HPC)) 101 % of control; under setting [2], 102 % of control; (dose: 400.0 mg/kg/injection, schedule: Q01DX001 (ip), vehicle: Klucel (hydroxypropylcellulose) (HPC)) 87 % of control; under setting [3], 92 % of control.

As to `Cc1ccc(S(=O)(=O)OC2COC3C(OS(=O)(=O)c4ccc(C)cc4)COC23)cc1` (centres undefined), the T/C reads like this: under setting [4], 93 % of control; (dose: 100.0 mg/kg/injection, schedule: Q04DX003 (ip), vehicle: DMSO) 103 % of control; under setting [5], 96 % of control; (dose: 200.0 mg/kg/injection, schedule: Q04DX003 (ip), vehicle: DMSO) 97 % of control; under setting [6], 93 % of control; (dose: 400.0 mg/kg/injection, schedule: Q04DX003 (ip), vehicle: DMSO) 111 % of control.

Regarding `CCCCCCCCCCCNC(=O)CCl`, the T/C (dose: 75.0 mg/kg/injection, schedule: Q04DX003 (ip), vehicle: Klucel (hydroxypropylcellulose) (HPC)) was 91 % of control; the T/C (dose: 150.0 mg/kg/injection, schedule: Q04DX003 (ip), vehicle: Klucel (hydroxypropylcellulose) (HPC)) was 92 % of control; the T/C (dose: 300.0 mg/kg/injection, schedule: Q04DX003 (ip), vehicle: Klucel (hydroxypropylcellulose) (HPC)) is 89 % of control.

In the case of `Clc1ccccc1/C=C/C=C1c2ccccc2-c2ccccc21`, the T/C was 98 % of control and 90 % of control under setting [7]; 98 % of control (dose: 200.0 mg/kg/injection, schedule: Q04DX003 (ip), vehicle: saline); 105 % of control and 92 % of control (dose: 400.0 mg/kg/injection, schedule: Q04DX003 (ip), vehicle: saline).

Regarding `O=C=Nc1cccc(S(=O)(=O)F)c1`, the T/C was 105 % of control under setting [8], 103 % of control under setting [9], 105 % of control under setting [10] and 97 % of control under setting [11].

Take `CSc1nc(N)n(C)n1`: the T/C reads like this: (dose: 100.0 mg/kg/injection, schedule: Q04DX002 (ip), vehicle: saline) 123 % of control; (dose: 200.0 mg/kg/injection, schedule: Q04DX002 (ip), vehicle: saline) 104 % of control; (dose: 400.0 mg/kg/injection, schedule: Q04DX002 (ip), vehicle: saline) 93 % of control.

As to `CC(CC(=O)O)NC(=O)OCc1ccccc1` (centres undefined), the T/C is 101 % of control (dose: 100.0 mg/kg/injection, schedule: Q01DX001 (ip), vehicle: saline with Tween-80); 100 % of control and 107 % of control (dose: 100.0 mg/kg/injection, schedule: Q01DX009 (ip), vehicle: saline with Tween-80); 103 % of control (dose: 100.0 mg/kg/injection, schedule: Q04DX003 (ip), vehicle: saline with Tween-80); 98 % of control (dose: 200.0 mg/kg/injection, schedule: Q01DX001 (ip), vehicle: saline with Tween-80); 97 % of control and 90 % of control (dose: 200.0 mg/kg/injection, schedule: Q01DX009 (ip), vehicle: saline with Tween-80); 94 % of control (dose: 200.0 mg/kg/injection, schedule: Q04DX003 (ip), vehicle: saline with Tween-80). Moreover, the T/C reads like this: (dose: 400.0 mg/kg/injection, schedule: Q01DX001 (ip), vehicle: saline with Tween-80) 95 % of control; (dose: 400.0 mg/kg/injection, schedule: Q01DX009 (ip), vehicle: saline with Tween-80) 100 % of control and 90 % of control; (dose: 400.0 mg/kg/injection, schedule: Q04DX003 (ip), vehicle: saline with Tween-80) 97 % of control.

As to `O=C(/C=C/c1ccccc1)N/N=C/c1cccs1`, the T/C reads like this: under setting [1], 86 % of control; under setting [2], 88 % of control.

As to `CCCCCc1cc[n+](CC(=O)c2ccccc2)cc1`, the T/C (dose: 25.0 mg/kg/injection, schedule: Q04DX003 (ip), vehicle: saline) was 100 % of control; the T/C under setting [4] was 93 % of control; the T/C under setting [7] was 87 % of control.

Turning to `CN1CN(c2ccccc2)C2(CCN(Cc3cc(=O)c4ccccc4o3)CC2)C1=O`, the T/C reads like this: (dose: 100.0 mg/kg/injection, schedule: Q04DX003 (ip), vehicle: Klucel (hydroxypropylcellulose) (HPC)) 102 % of control; (dose: 200.0 mg/kg/injection, schedule: Q04DX003 (ip), vehicle: Klucel (hydroxypropylcellulose) (HPC)) 101 % of control; (dose: 400.0 mg/kg/injection, schedule: Q04DX003 (ip), vehicle: Klucel (hydroxypropylcellulose) (HPC)) 98 % of control.

For `C=CC1CN2CCC1CC2C(OC(C)=O)c1ccnc2ccc(OC)cc12` (centres undefined), the T/C runs as follows: under setting [8], 97 % of control; under setting [9], 101 % of control; under setting [10], 97 % of control; under setting [11], 92 % of control.

For `C[C@H]1CN1C1=CC(=O)C(N2C[C@@H]2C)=CC1=O`, the T/C (dose: 0.88 mg/kg/injection, schedule: Q04DX003 (ip), vehicle: other) was 106 % of control; the T/C (dose: 1.0 mg/kg/injection, schedule: Q01DX001 (ip), vehicle: other) was 108 % of control; the T/C (dose: 1.56 mg/kg/injection, schedule: Q01DX009 (ip), vehicle: other) was 120 % of control; the T/C (dose: 2.0 mg/kg/injection, schedule: Q01DX001 (ip), vehicle: other) was 105 % of control; the T/C (dose: 2.0 mg/kg/injection, schedule: Q04DX003 (ip), vehicle: Klucel (hydroxypropylcellulose) (HPC)) is 108 % of control; the T/C (dose: 2.0 mg/kg/injection, schedule: Q04DX003 (ip), vehicle: other) was 120 % of control. For the same molecule, the T/C reads like this: (dose: 4.0 mg/kg/injection, schedule: Q04DX003 (ip), vehicle: Klucel (hydroxypropylcellulose) (HPC)) 117 % of control; (dose: 5.0 mg/kg/injection, schedule: Q01DX009 (ip), vehicle: other) 166 % of control; (dose: 8.0 mg/kg/injection, schedule: Q04DX003 (ip), vehicle: Klucel (hydroxypropylcellulose) (HPC)) 124 % of control; (dose: 9.0 mg/kg/injection, schedule: Q04DX003 (ip), vehicle: saline with Tween-80) 95 % of control; (dose: 9.5 mg/kg/injection, schedule: Q01DX001 (ip), vehicle: other) 114 % of control; (dose: 12.0 mg/kg/injection, schedule: Q01DX009 (ip), vehicle: other) 92 % of control. For the same molecule, the T/C (dose: 25.0 mg/kg/injection, schedule: Q04DX003 (ip), vehicle: saline with Tween-80) is 105 % of control.

On to `COC(=O)c1ccc(N(C)CCC(=O)COC(C)=O)cc1`, for which the T/C was 103 % of control under setting [4], 97 % of control under setting [5] and 95 % of control under setting [6].

Regarding `NC(=O)c1ccccc1NC(=O)c1ccccc1Cl`, the T/C is, setting by setting: under setting [1], 102 % of control; under setting [2], 100 % of control; under setting [3], 93 % of control.

For the molecule `c1cc[c]([Sn]([S]c2nc3ccccc3s2)([c]2ccccc2)[c]2ccccc2)cc1`, the T/C (dose: 5.0 mg/kg/injection, schedule: Q04DX002 (ip), vehicle: saline with Tween-80) was 104 % of control; the T/C (dose: 10.0 mg/kg/injection, schedule: Q04DX002 (ip), vehicle: saline with Tween-80) is 97 % of control; the T/C (dose: 20.0 mg/kg/injection, schedule: Q04DX002 (ip), vehicle: saline with Tween-80) is 97 % of control.

Turning to `OC12CC[N+](Cc3ccccc3)(CC1)CC2`, the T/C is 104 % of control (dose: 75.0 mg/kg/injection, schedule: Q01DX001 (ip), vehicle: saline) and 100 % of control (dose: 150.0 mg/kg/injection, schedule: Q01DX001 (ip), vehicle: saline).

`N#CC(OC(=O)c1ccccc1)c1ccc([N+](=O)[O-])cc1` (centres undefined): the T/C under setting [4] is 102 % of control.
